pKi: −log10 of the molar value. Like-named read-outs stand apart in the source and are kept apart here.
Tests used:
[1] = biological target: Rho kinase 2 (Homo sapiens (Human), UniProt O75116); test: Rho Kinase Inhibition Assay (IMAP fluorescence polarization), Rho kinase 2; assay type: biochemical; settings: isolated enzyme, 10 μM ATP, 60 minutes at room temperature
[2] = biological target: Rho kinase 1 (Homo sapiens (Human), UniProt Q13464); test: biochemical
[3] = Rho kinase 1 Ki, isolated enzyme, 10 μM ATP, 60 minutes at room temperature

Sequence of Rho kinase 1 (Q13464 17-535): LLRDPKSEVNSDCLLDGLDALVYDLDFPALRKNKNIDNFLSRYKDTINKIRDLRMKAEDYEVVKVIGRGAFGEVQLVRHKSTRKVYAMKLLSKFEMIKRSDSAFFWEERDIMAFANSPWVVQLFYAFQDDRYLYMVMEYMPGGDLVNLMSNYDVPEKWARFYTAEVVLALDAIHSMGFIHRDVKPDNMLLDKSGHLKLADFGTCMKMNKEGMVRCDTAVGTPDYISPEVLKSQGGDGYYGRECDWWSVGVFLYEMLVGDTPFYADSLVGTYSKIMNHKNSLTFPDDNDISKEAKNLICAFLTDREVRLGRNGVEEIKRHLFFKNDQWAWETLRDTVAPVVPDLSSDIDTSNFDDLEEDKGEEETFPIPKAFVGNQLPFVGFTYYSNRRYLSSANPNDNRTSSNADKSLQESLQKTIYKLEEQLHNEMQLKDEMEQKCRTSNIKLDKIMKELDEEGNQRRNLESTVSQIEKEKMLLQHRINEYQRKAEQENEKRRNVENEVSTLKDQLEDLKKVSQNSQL
Sequence of Rho kinase 2 (O75116 11-552): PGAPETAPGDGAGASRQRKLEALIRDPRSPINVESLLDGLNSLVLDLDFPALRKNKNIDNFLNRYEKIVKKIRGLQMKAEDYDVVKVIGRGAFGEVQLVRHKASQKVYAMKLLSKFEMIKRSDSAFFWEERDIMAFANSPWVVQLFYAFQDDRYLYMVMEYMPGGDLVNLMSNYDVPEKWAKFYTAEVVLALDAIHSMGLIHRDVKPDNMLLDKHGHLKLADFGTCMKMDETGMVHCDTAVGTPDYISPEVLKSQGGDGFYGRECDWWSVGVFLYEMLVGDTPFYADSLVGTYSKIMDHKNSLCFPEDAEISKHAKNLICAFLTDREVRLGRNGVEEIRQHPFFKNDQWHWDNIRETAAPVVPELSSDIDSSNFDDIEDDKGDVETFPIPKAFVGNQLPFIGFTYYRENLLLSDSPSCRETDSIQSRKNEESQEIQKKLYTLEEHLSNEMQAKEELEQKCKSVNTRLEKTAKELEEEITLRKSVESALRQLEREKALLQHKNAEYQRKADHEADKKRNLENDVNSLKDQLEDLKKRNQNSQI

Row | SMILES | pKi ([1]; read-out: Rho kinase 2 Ki) | pKi [2] | pKi ([1]; Rho kinase 2 Ki) | pKi [2, 3]
1 | c1ccc(CN2C[C@@H]3CC[C@H]2[C@@H]3Nc2ccc3[nH]ncc3c2)cc1 (racemic) [Compound 3.1.01, N-((1SR,4SR,7RS)-2-benzyl-2-azabicyclo[2.2.1]heptan-7-yl)-1H-indazol-5-amine] | 6.33 | 6.01 |  | 
2 | c1ccc(CN2C3CCC2CC(Nc2ccc4[nH]ncc4c2)C3)cc1 (single isomer, unassigned) [Compound 1.1.01, N-((1RS,3rs,5SR)-8-benzyl-8-azabicyclo[3.2.1]octan-3-yl)-1H-indazol-5-amine] |  |  | 7.54 | 7.14
3 | c1ccc(CN2C3CCC2CC(Nc2ccc4[nH]ncc4c2)C3)cc1 (single isomer, unassigned) [Compound 2.1.01, N-((1RS,3sr,5SR)-8-benzyl-8-azabicyclo[3.2.1]octan-3-yl)-1H-indazol-5-amine] |  |  | 6.66 | 6.09
4 | Cc1ccc(CN2C3CCC2CC(Nc2ccc4[nH]ncc4c2)C3)cc1 (stereo not drawn) [Compound 1.1.02, N-((1RS,3rs,5SR)-8-(4-methylbenzyl)-8-azabicyclo[3.2.1]octan-3-yl)-1H-indazol-5-amine] |  |  | 7.70 | 7.04
5 | OCCOc1cccc(CN2C3CCC2CC(Nc2ccc4[nH]ncc4c2)C3)c1 (stereo not drawn) [Compound 1.1.03, 2-(3-(((1RS,3rs,5SR)-3-((1H-indazol-5-yl)amino)-8-azabicyclo[3.2.1]octan-8-yl)methyl)phenoxy)ethanol] |  |  | 7.68 | 
6 | Cc1ccc(CN2C3CCC2CC(Nc2ccc4[nH]ncc4c2)C3)cc1OCCO (stereo not drawn) [Compound 1.1.04, 2-(5-(((1RS,3rs,5SR)-3-((1H-indazol-5-yl)amino)-8-azabicyclo[3.2.1]octan-8-yl)methyl)-2-methylphenoxy)ethanol] |  |  | 8.00 | 7.46
